Source: article PMC6269693, “Synthesis and Biological Evaluation of RGD-Conjugated MEK1/2 Kinase Inhibitors for Integrin-Targeted Cancer Therapy” (Molecules, 2013)
Read-outs that look alike come from different tables or passages of the source.

Legend:
melanoma A375 cells [1] = conditions: for IC50: 72 h
Protocol: (§2) A375, U87, A549 cell line, which were obtained from the National Platform of Experimental Cell Resources for Sci-Tech (Beijing, China), were cultured in Dulbecco’s modified Eagle’s medium (DMEM; Hyclone, Logan, UT, USA), supplemented with 10% heat-inactivated FBS (Hyclone), 100 U/mL penicillin, and 100 μg/mL streptomycin (Wako Pure Chemical Industries, Ltd., Osaka, Japan).
(§3) The cytotoxicity of the RGD-MKE1 conjugates on A375 melanoma cells, ERK signal pathway hyper-activated cell line, was studied in vitro by using an SRB assay. A375 cells (4.5 × 10^3) or U87 cells (5.0 × 10^3) were plated in each well of a 96-well tissue culture plate. Medium supplemented with 10% FBS was added, and cells were allowed to adhere for 24h. […] Then the medium was removed from the 96-well plate, and 10% ice-cold trichloroacetic acid (TCA, 200 μL) was added. The plate was kept at 4 for one hour after which was washed five times with deionized water, then stained with Sulforhodamine B (SRB, 100 μL, Sigma, St. Louis, MO, USA) before air drying. After washing with 1% acetic acid, the bound dye was solubilized with Tris base A (Sigma) and 100 μL of each sample were transferred into a 96-well plate, and then absorbance was read in a 96-well plate reader at 540 nm.Inhibitory ratio (%) = [(ODcontrol − ODtreated)/(ODcontrol)] × 100%.

melanoma A375 cells [2] = test: cells; conditions: Homo sapiens, A-375, 72 h
Protocol: as §2, §3

inactive MEK1 kinase = inactive MEK1 kinase (Homo sapiens, UniProt Q02750); test: HTRF phosphor-MEK1 assay (BRAF-MEK1 assay); type: biochemical; conditions: for BRAF-MEK1 assay (%) 0.01μM / BRAF-MEK1 assay (%) 0.1 μM / BRAF-MEK1 assay (%) 1 μM: inhibition of phosphorylation of inactive MEK1, mean of three ± SD
Protocol: (§1) Phosphorylated MEK1 was determined quantitatively by formation of a complex with specific Eu-labeled anti-phospho p44/42 MAPK (Thr202/Tyr204) antibody and anti-GST-XL665.After 3 h, time-resolved fluorescence was read using a FlexStation 3 plate reader (Molecular Devices, Sunnyvale, CA, USA). […] The curve-fitting software GraphPad Prism 4.0 was used to generate the curves and determine the IC50 values. […] The calculation method of HTRF ratio was the same with that in HTRF phosphor-MEK1 assay.

active MEK1 kinase = target: T1, active MEK1 kinase (Homo sapiens, UniProt Q02750); test: HTRF phosphor-ERK2 assay (MEK1-ERK2 assay); type: biochemical; conditions: inhibition of active MEK1 phosphorylating inactive ERK2, mean of three ± SD
T1 construct: purchased Carna Biosciences
Protocol: as §1

U87 glioblastoma cells = test: In vitro anti-proliferation assay by the SRB method, U87; type: cell-based, human
Protocol: as §2, §3

[3] = system: p-ERK1/2 in melanoma A375 cells; test: Western blotting of p-ERK1/2 in A375 cell lysates; type: cell-based; conditions: 10 μM, 2 h
Protocol: To evaluate the expression levels of ERK singal pathway after treated with conjugates, A375 cells were treated with compounds for 2 h respectively. Confluent cells were washed with ice-cold phosphate-buffered saline (PBS), and treated with lysis buffer (Beyotime Institute of Biotechnology, Suzhou, China) on ice for 1 h. Then the lysates were collected by scraping from the plates and then centrifuged at 13,000 rpm at 4 °C for 15 min. The protein concentration was quantitated using a Pierce BCA Protein Assay Kit (Thermo Scientific, Rockford, IL, USA) ona FlexStation 3 Benchtop Multi-Mode Microplate Reader at 562 nm (Molecular Devices). An equal amount of proteins (10 μg per lane) for each sample were analyzed by SDS-PAGE on a 10% gel. After electro-blotting to PVDF membrane (Millipore, Billerica, MA, USA) at 400 mA for 1 h, membranes were blocked with 5% nonfat dry milk for 1 h at room temperature. Membrane were washed with 0.1% PBST three times and then incubated with primary antibodies overnight at 4 °C. Antibodies against pERK and ERK (Cell Signaling Technology, Inc., Danvers, MA, USA) were utilized as the primary antibodies. […] Finally, protein products were analyzedby Image Lab^TM software(ChemiDoc^TM XRS System, BIO-RAD, Hercules, CA, USA) with. […]

Chain of inactive MEK1 kinase (Q02750 whole entry): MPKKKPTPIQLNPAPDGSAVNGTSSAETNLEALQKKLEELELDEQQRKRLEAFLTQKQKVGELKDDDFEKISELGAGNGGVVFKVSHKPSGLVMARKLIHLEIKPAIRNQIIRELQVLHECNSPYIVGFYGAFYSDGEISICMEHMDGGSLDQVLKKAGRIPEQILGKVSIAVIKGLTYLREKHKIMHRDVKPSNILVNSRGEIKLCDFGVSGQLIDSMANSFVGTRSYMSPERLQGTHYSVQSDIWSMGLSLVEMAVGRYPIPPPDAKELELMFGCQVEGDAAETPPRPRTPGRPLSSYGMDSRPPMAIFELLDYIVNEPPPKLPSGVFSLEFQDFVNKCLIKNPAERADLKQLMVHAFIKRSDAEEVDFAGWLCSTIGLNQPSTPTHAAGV
T1 sequence (Q02750 whole entry): as above

BRAF-MEK1 assay (%) 0.01μM (inactive MEK1 kinase) [%]	BRAF-MEK1 assay (%) 0.1 μM (inactive MEK1 kinase) [%]	BRAF-MEK1 assay (%) 1 μM (inactive MEK1 kinase) [%]	MEK1-ERK2 assay (%) 1 μM (active MEK1 kinase) [%]	MEK1-ERK2 assay (%) 10 μM (active MEK1 kinase) [%]	Compound	other results
					O=C(O)CCC(=O)OC[C@H](O)CONC(=O)c1ccc(F)c(F)c1Nc1ccc(I)cc1F [Compound 11, (S)-4-(3-((3,4-difluoro-2-((2-fluoro-4-iodophenyl)amino)benzamido)oxy)-2-hydroxypropoxy)-4-oxobutanoic Acid]	fold loss of antitumor efficacy compared to 13 (melanoma A375 cells [1]; A375 IC50 vs 13): ~10 fold; IC50 (melanoma A375 cells [2]; read-out: A375 proliferation assay IC50): 230 nM
					NCCOCCONC(=O)c1ccc(F)c(F)c1Nc1ccc(I)cc1F [Compound 7e, N-(2-(2-aminoethoxy)ethoxy)-3,4-difluoro-2-((2-fluoro-4-iodophenyl)amino)benzamide]	melting point: 197.5 to 198.5 °C
					O=C(NOC[C@H](O)CO)c1ccc(F)c(F)c1Nc1ccc(I)cc1F [PD0325901, reference compound]	inhibition at 1 µM (U87 glioblastoma cells; Homo sapiens, U-87 MG, high concentrations (>1 µM), concentration-independent, 72 h, read-out: inhibitory activity in U87 cells): ~50%; IC50 (melanoma A375 cells [2]; read-out: A375 cell IC50): 0.45 nM
					c(RGDyK) [cRGD peptides, reference compound]	inhibition of the phosphorylation of ERK1/2 protein [3]: no inhibitory activity
12.5 ± 3.2	39.6 ± 9.3	57.5 ± 1.7	29.1 ± 12.0	83.4 ± 1.2	O=C(O)CCC(=O)NCCCONC(=O)c1ccc(F)c(F)c1Nc1ccc(I)cc1F [Compound 8b, 4-((3-((3,4-Difluoro-2-((2-fluoro-4-iodophenyl)amino)benzamido)oxy)propyl)amino)-4-oxobutanoic acid]	IC50 (melanoma A375 cells [2]; read-out: A375 cell IC50): 14200 nM
					O=C(O)CCC(=O)NCCCCONC(=O)c1ccc(F)c(F)c1Nc1ccc(I)cc1F [Compound 8c, 4-((4-((3,4-Difluoro-2-((2-fluoro-4-iodophenyl)amino)benzamido)oxy)butyl)amino)-4-oxobutanoic acid]	melting point: 120.9 to 121.9 °C
0.3 ± 0.0	30.0 ± 4.7	74.2 ± 7.2	66.5 ± 7.7	88.4 ± 1.4	N=C(N)NCCC[C@@H]1NC(=O)[C@H](CCCCNC(=O)CCC(=O)NCCONC(=O)c2ccc(F)c(F)c2Nc2ccc(I)cc2F)NC(=O)[C@@H](Cc2ccc(O)cc2)NC(=O)[C@H](CC(=O)O)NC(=O)CNC1=O [Compound 9a]	IC50 (melanoma A375 cells [1]): 4400 nM

Compound	BRAF-MEK1 assay (%) 0.01μM (inactive MEK1 kinase) [%]	BRAF-MEK1 assay (%) 0.1 μM (inactive MEK1 kinase) [%]	BRAF-MEK1 assay (%) 1 μM (inactive MEK1 kinase) [%]	MEK1-ERK2 assay (%) 1 μM (active MEK1 kinase) [%]	MEK1-ERK2 assay (%) 10 μM (active MEK1 kinase) [%]	other results
N=C(N)NCCC[C@@H]1NC(=O)[C@H](CCCCNC(=O)CCC(=O)NCCCONC(=O)c2ccc(F)c(F)c2Nc2ccc(I)cc2F)NC(=O)[C@@H](Cc2ccc(O)cc2)NC(=O)[C@H](CC(=O)O)NC(=O)CNC1=O [Compound 9b]	6.7 ± 8.5	58.5 ± 8.5	77.6 ± 7.5	69.9 ± 3.2	93.5 ± 2.2	IC50 (inactive MEK1 kinase): 47.9 nM; U87 cell-growth inhibition (U87 glioblastoma cells; 10 µM, SRB method): 21.3%; inhibition of the phosphorylation of ERK1/2 protein [3]: up to 90%; IC50 (melanoma A375 cells [1]): 2100 nM
